Test results as given in EP4711364A1, “FUSED PYRROLE RING OR FUSED PYRIDINE RING COMPOUND” (Pharmaengine, Inc., priority 2023, dated 2024).

Columns and labels:
[1] = target: T1, NanoLuc-PKMYT1 fusion construct (Homo sapiens, UniProt Q99640); test: cell-based; format: binding; settings: HEK293 cell lines transiently expressing NanoLuc-PKMYT1; NanoBRET tracer; test compounds for 2 hours
T1 construct: expressed in transfected cells; host or cells: HEK293 (transient expression)
T1 sequence (Q99640 1-499): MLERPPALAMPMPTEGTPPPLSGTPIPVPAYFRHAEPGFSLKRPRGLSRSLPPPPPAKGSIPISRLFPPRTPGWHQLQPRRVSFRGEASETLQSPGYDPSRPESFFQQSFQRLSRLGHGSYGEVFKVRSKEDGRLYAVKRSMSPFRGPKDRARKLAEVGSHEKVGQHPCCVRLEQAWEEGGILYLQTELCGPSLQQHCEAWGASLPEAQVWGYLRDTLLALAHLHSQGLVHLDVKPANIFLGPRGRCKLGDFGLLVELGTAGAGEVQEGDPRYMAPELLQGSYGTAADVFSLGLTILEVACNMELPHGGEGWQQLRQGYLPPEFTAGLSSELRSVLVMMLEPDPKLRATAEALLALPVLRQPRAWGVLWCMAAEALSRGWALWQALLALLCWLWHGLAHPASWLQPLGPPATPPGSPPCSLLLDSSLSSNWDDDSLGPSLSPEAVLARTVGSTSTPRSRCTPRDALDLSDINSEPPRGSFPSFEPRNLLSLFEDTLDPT
Method: HEK293 cell lines transiently expressing the NanoLuc-PKMYT1 fusion construct were seeded into wells of a 3 84-well plate. Cells were pretreated with NanoBRET tracer, then treated with test compounds for 2 hours. BRET signals were measured on an Envision multimode plate reader at 450 nm and 610 nm. IC50 values were calculated, and IC50 curves were plotted using GraphPad Prism with a four-parameter nonlinear regression model.

HCC1569 = test: Cell Proliferation Assay (CellTiter-Glo); format: cell-based; settings: Homo sapiens, 168 h, CCNE1-amplified breast cancer cell line HCC1569, incubated for 7 days
Method: The sensitivity of cancer cell lines with normal or elevated CCNE1 levels to test compounds was evaluated in a cell proliferation assay. Cell lines were maintained in ATCC-recommended culture media supplemented with 10% FBS and 1% penicillin/streptomycin in a humidified 5% CO2 incubator. All test compounds were stored as 20 mM DMSO stock solutions.
On Day 0, CCNE1-wild type (wt) and CCNE1-amplified (amp) cells were seeded into 384-well plates and incubated for 16 to 24 hours in a humidified 5% CO2 incubator. On Day 1, test compounds were dispensed into wells at specified concentrations (n=2), with DMSO volume normalized to the highest concentration. Plates with compound-treated cells were incubated for 7 days in a humidified 5% CO2 incubator.
On Day 7, plates were removed from the incubator and equilibrated to room temperature. Relative inhibition was assessed by adding CellTiter-Glo reagent. Data were plotted as a percentage of the DMSO control for each compound in each cell line. IC50 values were calculated using a four-parameter nonlinear regression model (GraphPad Prism). Table 1: Cell viability data

Structure (SMILES)	IC50 [1] [nM]	IC50 (HCC1569) [nM]
Cc1ccc2[nH]ncc2c1-n1c(N)c2c3c(c(C)c(C)nc31)C=CNC2=O [Compound 126]	5.5	666
Cc1nc2c3c(c1C)C=CNC(=O)c3c(N)n2-c1c(Cl)cc(F)c2[nH]ncc12 [Compound 136]	21.6	> 1000
Cc1nc2c3c(c1C)C=CNC(=O)c3c(N)n2-c1c(Cl)c(F)cc2[nH]ncc12 [Compound 137]	22.5	566
Cc1nc2c3c(c1C)C=CNC(=O)c3c(N)n2-c1c(C)c(F)cc2[nH]ncc12 [Compound 138]	19.8	> 1000
Cc1cc2c(C(N)=O)c(N)n(-c3c(C)ccc(O)c3C)c2nc1C [Rp6306, reference compound]		18
